Reference: PubChem BioAssay (NCI)
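1) Cells in 96-well plates. 2) Compound, 48 h, 5 concentrations. 3) Linear interpolation between surrounding doses. 4) Unreached endpoint = highest concentration. TGI: total growth inhibition.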

Experiments:
Experiment in all cases: NCI anticancer screen, dose series, 48 h
[1] = test system: SK-MEL-5 melanoma
[2] = test system: PC-3 prostate
[3] = test system: SNB-19 CNS
[4] = test system: A498 renal
[5] = test system: MDA-N
[6] = test system: HOP-92 NSCLC
[7] = test system: OVCAR-8 ovarian
[8] = test system: SN12C renal
[9] = test system: OVCAR-4 ovarian
[10] = test system: SF-268 CNS
[11] = test system: NCI-H23 lung
[12] = test system: ACHN renal
[13] = test system: MDA-MB-231 breast
[14] = test system: RPMI-8226 leukemia
[15] = test system: UACC-257 melanoma
[16] = test system: SW-620 colon
[17] = test system: DU-145 prostate
[18] = test system: HOP-62 NSCLC
[19] = test system: K-562 leukemia
[20] = test system: NCI-H226 lung

| Structure (SMILES) | TGI [1] [µM] | TGI [2] [µM] | TGI [3] [µM] | TGI [4] [µM] | TGI [5] [µM] | TGI [6] [µM] | TGI [7] [µM] | TGI [8] [µM] | TGI [9] [µM] | TGI [10] [µM] | TGI [11] [µM] | TGI [12] [µM] | TGI [13] [µM] | TGI [14] [µM] | TGI [15] [µM] | TGI [16] [µM] | TGI [17] [µM] | TGI [18] [µM] | TGI [19] [µM] | TGI [20] [µM] |
| --- | --- | --- | --- | --- | --- | --- | --- | --- | --- | --- | --- | --- | --- | --- | --- | --- | --- | --- | --- | --- |
| CN(CC(=O)O)c1ncc2c(n1)-c1ccccc1SC2 | > 100 | > 100 | > 100 | > 100 | > 100 | > 100 | > 100 | > 100 | > 100 | > 100 | > 100 | > 100 | > 100 | > 100 | > 100 | > 100 | > 100 |  |  |  |
| Nc1ccc(-c2nc3cc(F)ccc3s2)cc1Cl | > 100 | > 100 | > 100 | > 39.3 | > 100 | > 78.9 | > 100 | > 71.8 | > 100 | > 100 |  | > 85 | > 100 | > 100 | > 100 | > 100 | > 100 | 46.8 | > 100 | 5.04 |
| NC1CC(=O)c2c(Br)csc21 (stereo unspecified) | > 100 | > 100 | > 100 | > 100 | > 100 |  | > 100 | > 100 |  | > 100 |  | > 100 | > 100 | > 100 | > 100 | 77.7 | > 100 | > 100 | > 100 |  |
| O=Cc1cn(CCCCCCCCCCCCn2cc(C=O)c3ccccc32)c2ccccc12 | > 100 | > 100 | > 100 | > 100 | > 100 | > 100 | > 100 | > 100 |  | > 100 | > 100 | > 100 | > 100 |  | > 100 | > 100 | > 100 | > 100 | > 100 | > 100 |
| OCCCCCCCCCCCOc1ccc(C2OCC3(CO2)COC(c2ccc(OCCCCCCCCCCCO)cc2)OC3)cc1 (stereo unspecified) | > 50 | > 50 | > 50 | > 50 | > 50 |  | > 50 | > 50 | > 50 | > 50 | > 50 | > 50 | > 50 | > 50 | > 50 | > 50 | > 50 | > 50 | > 50 | > 50 |
| COc1cc(C2SCC(=O)N2c2ccccn2)cc(OC)c1OC (stereo unspecified) | > 100 | > 100 | > 100 | > 100 | 41.6 | 89.2 | > 100 | > 100 | > 100 | > 100 | > 100 | > 100 | > 100 | > 100 | > 100 | > 100 | > 100 |  | > 100 | > 100 |
| CC(C)(C)[Si](C)(C)OCC1OC(n2ccc(N)nc2=O)C(O[Si](C)(C)C(C)(C)C)C1O[Si](C)(C)C(C)(C)C (stereo unspecified) | 3.43 | 3.65 | 11.4 |  | 13 | 4.71 | 5.68 | 10.2 | 2.21 | 7.27 |  | 3.21 | 22.7 |  | 10.4 | 2.93 | 23.7 | 4.85 |  | 2.86 |
| O=c1cnn(C2OC(C(O)CO)C(O)C2O)c(=O)[nH]1 (stereo unspecified) | > 100 | > 100 | > 100 |  | > 100 | > 100 | > 100 | > 100 | > 100 | > 100 | > 100 | > 100 | > 100 | > 100 | > 100 | > 100 | > 100 | > 100 | > 100 | > 100 |
| CC(=O)c1ccc(NCc2cc(O)ccc2O)cc1 | 57.2 | 41.3 | > 100 | > 100 | 43.5 | 39.2 | 88.1 | 92.8 | 34.4 |  | 48.9 | 33 | 73.8 | > 100 | 33.9 | > 100 | 58 | 42 | > 100 | > 100 |
| N=C1/C(=C/c2ccc(F)cc2)C(=O)N=C2SC=NN12 | > 100 | > 100 | > 100 |  | > 100 | > 100 | > 100 | > 100 | > 100 | > 100 | > 100 | > 100 | > 100 | > 100 | > 100 | > 100 | > 100 | > 100 | > 100 | > 100 |
| COC(=O)CC(C#N)(OP1(=O)OC(c2ccccc2)C(C)N1C)c1ccccc1 (stereo unspecified) | > 100 | > 100 | > 100 | > 100 | 75.4 | 85.8 | 67.1 | 77 |  | > 100 | 97.9 | 59.8 | > 100 | 70.2 | 46.4 | 43.6 | > 100 | > 100 | 78.7 |  |
| O=c1cc(N2CCOCC2)[nH]c(=O)n1-c1ccc(F)cc1 |  | > 100 | > 100 | > 100 | > 100 |  | > 100 | > 100 | > 100 | > 100 | > 100 | > 100 | > 100 | > 100 | > 100 | > 100 | > 100 | > 100 | > 100 | > 100 |
| COc1cc(/C=C2\C[C@H]3[C@@H]4CCc5cc(O)ccc5[C@H]4CC[C@]3(C)C2=O)cc(OC)c1OC | 38.4 | 25.5 | 47.1 | 87.5 | 62.3 |  | 30.1 | 39.5 | 72.8 | 24 | 28.5 | 38.7 | 43.9 | 28.9 | 34.1 | 34.1 | 17.5 | 27.9 | 24.8 | 32 |
